Data: patent publication US8414883B2, “Parvovirus cancer therapy and combination with chemotherapy” (priority 2007, dated 2013)
“Also recorded” adds a separate entry of the source. Read-outs that look alike come from different tables or passages of the source.

Columns and labels:
Colo357 cells = assay: MTT cytotoxicity of H-1PV, gemcitabine and their combination, Colo357; format: cell-based; conditions: Homo sapiens
Experimental: (§1) Survival was measured using MTT assays performed 72 h after infection, in comparison with mock-treated cultures (100%), and is inversely expressed as cell death rate. The data presented are means from 3 independent experiments carried out in quadruplicates.
(§2) For cytotoxicity assessment, cells were seeded in 96-well plates at a density of 2×10^3 cells per well and treated as indicated in the Figure Legends. Cell viability was determined by the colorimetric MTT (3-(4,5-dimethylthiazolyl-2)-2,5-diphenyltetrazolium bromide) assay, as recommended by the manufacturer (Sigma, Deisenhofen, Germany).
(§3) Means and standard deviations (SD) were calculated from triplicate in vitro experiments. […] The isobologram was created from the data obtained for the combination of the two agents. […] CI=1 represents the conservation isobologram and indicates additive effects. CI values below 1 indicate higher than the expected additive effect (synergy).

SU86.86 cells = assay: MTT cytotoxicity of H-1PV, gemcitabine and their combination, SU86.86; format: cell-based, human
Experimental: as §1, §2, §3

BxPC3 cells = assay: MTT cytotoxicity of H-1PV, gemcitabine and their combination, BxPC3; format: cell-based; conditions: Homo sapiens
Experimental: as §1, §2, §3

HA-RPC cells = assay: MTT cytotoxicity on rat PDAC cells; format: cell-based; conditions: compared with the human PDAC cells
Experimental: as §2

[1] = Toxicological assessment of blood markers in PDAC-bearing rats; format: in vivo, Lewis rats; conditions: rat model
Experimental: Blood samples were analyzed for: (A) red blood cell (RBC), platelet, and white blood cell (WBC) counts and related parameters; (B) liver (aspartate amino transferase [ASAT], alanine amino transferase [ALAT]) and kidney (Creatinine) markers. The data shown are means with SD bars.
H-1PV was inoculated intratumorally (i.t.). Blood samples were taken from animal tail vein 2 weeks after the last therapeutic treatment. Toxicological markers were assayed in Strasbourg University Hospital using automated clinical laboratory analysis (Biochemical multiparametric device Biochime ADVIA 160, Siemens, Cergy Pontoise, France).

[2] = test system: intrapancreatic HA-RPC tumors; assay: Survival of PDAC-bearing rats after combined gemcitabine and H-1PV; format: in vivo, Lewis rats; conditions: vs. mock treatment or gemcitabine monotherapy
Experimental: Animal survival was monitored over a period of 100 days and is presented as Kaplan-Meyer curves, with the median survival and P values indicated below.
Male Lewis rats (Janvier, Le Genest Saint Isle, France) weighing 180-200 g were used for pancreatic carcinoma implantation. 5.10^6 HA-RPC cells were injected in the pancreatic parenchyma. Tumor progression is confined to the pancreatic tail for the first 3 weeks after implantation, leading to lymph node invasion during the 4th week. Liver metastases appear at weeks 5-6 and death with lung metastasis occurs within weeks 6-9.[17] Animals were kept under conventional conditions (temperature 22±2° C., relative humidity 55±10%, dark-light rhythm of 12 hr) with unrestricted access to a balanced pellet diet and water. Animal experiments were performed according to the French and European Community directives for animal care (number 86/609/EEC of Nov. 24, 1986). […]
Mean and standard deviations from triplicate in vitro experiments were calculated. Difference in tumour volume, determined in vivo through mCT-scan size measurements, was tested using a one-way analysis of variance followed by a parametric Student's unpaired t test as Bartlett's test indicated homogeneity of variance. […] The survival curves were generated using the Kaplan-Meier method, and the differences between the curves were assessed by the log-rank test. […]

MiaPaCa-2 cells = assay: MTT cytotoxicity of H-1PV, gemcitabine and their combination, MiaPaCa-2; format: cell-based, human
Experimental: as §1, §2, §3

Panc-1 cells = assay: MTT cytotoxicity of H-1PV, gemcitabine and their combination, Panc-1; format: cell-based; conditions: Homo sapiens
Experimental: as §1, §2, §3

T3M-4 cells = assay: MTT cytotoxicity of H-1PV, gemcitabine and their combination, T3M-4; format: cell-based, human
Experimental: as §1, §2, §3
Drug sensitivity of parental and resistant cells was assessed in both MTT and clonogenic survival assays.

U343MG cells = assay: MTT survival of U343MG cells; format: cell-based, human; conditions: U343; 6 days; H-1PV 5 pfU/cell, 25 μM TMZ
Experimental: The percentage of surviving U343MG cells [%] 3 days (A) and 6 days (B) after treatment with H-1PV (Virus), combined treatment with H-1PV and TMZ (V+TMZ), and treatment with TMZ only (TMZ) is shown.
(§4) Initially, the rates of survival of the cell lines used in the study were determined using MTT assays in order to check whether these cell lines are sensitive for H-1PV infection and Temozolomide (TMZ) treatment. In addition, the rates of survival after combined treatment with H-1PV and TMZ were determined. […] The graphs of FIGS. 7-11 depict the results after 3 and 6 days, respectively. After 3 days of treatment distinct effects can already be observed. After 6 days the experiments were terminated since control cells were already confluent. In addition, after 6 days further analyses could not be carried out due to the very low rate of survival (depending on the particular cell line).

U87MG cells = assay: MTT survival of U87MG cells; format: cell-based, human; conditions: 3 days, H-1PV 5 pfU/cell, 25 μM TMZ
Experimental: The percentage of surviving U87MG cells [%] 3 days (A) and 6 days (B) after treatment with H-1PV (Virus), combined treatment with H-1PV and TMZ (V+TMZ), and treatment with TMZ only (TMZ) is shown.
as §4

U373MG cells = assay: MTT survival of U373MG cells; format: cell-based, human; conditions: U373; 6 days; H-1PV 5 pfU/cell, 25 μM TMZ
Experimental: The percentage of surviving U373MG cells [%] 3 days (A) and 6 days (B) after treatment with H-1PV (Virus), combined treatment with H-1PV and TMZ (V+TMZ), and treatment with TMZ only (TMZ) is shown.
as §4

Nc1ccn([C@@H]2O[C@H](CO)[C@@H](O)C2(F)F)c(=O)n1 [gemcitabine] showed an EC50 (Colo357 cells; COLO357, read-out: EC50 mono. gemcitabine) of 1.5 ng/mL, an EC50 (Colo357 cells; read-out: EC50 comb. 1 gemcitabine, Colo357, combined with H-1PV MOI 1) of 1.3 ng/mL and an EC50 (Colo357 cells; read-out: EC50 comb. 2 gemcitabine, Colo357, combined with H-1PV MOI 10) of 0.6 ng/mL. The EC50 (SU86.86 cells; Homo sapiens, SU.86.86, read-out: EC50 gemcitabine monotherapy (in brackets)) was 2.5 ng/mL, the “EC75 comb. 1 gemcitabine” value (SU86.86 cells; SU86.86, combined with H-1PV MOI 1) was 8.0 ng/mL and the “EC75 comb. 2 gemcitabine” value (SU86.86 cells; SU86.86, combined with H-1PV MOI 10) was 1.3 ng/mL. For the same molecule, the EC75 mono. gemcitabine (SU86.86 cells; SU86.86, gemcitabine alone, MTT) was 17 ng/mL, the EC50 (BxPC3 cells; BXPC-3, read-out: EC50 comb. 1 gemcitabine, BxPC3, combined with H-1PV MOI 1) was 20 ng/mL and the EC50 (BxPC3 cells; BXPC-3, read-out: EC50 comb. 2 gemcitabine, BxPC3, combined with H-1PV MOI 10) was 7 ng/mL. The EC50 (BxPC3 cells; BXPC-3, read-out: EC50 mono. gemcitabine) was 25 ng/mL, the “sensitivity to virus and gemcitabine toxicity” value (HA-RPC cells) was “same range of sensitivity” and the “bilirubin, ASAT, and ALAT levels” value ([1]; 2 weeks after last treatment) was “elevated”. For the same molecule, the “reticulocyte and monocyte levels” value ([1]; 2 weeks after last treatment) was “drop”, the Creatinine levels ([1]; kidney clearance) was “remained stable” and the “survival of PDAC-bearing rats” value [2] was “transient protection”. For the same molecule, the EC50 (MiaPaCa-2 cells; Homo sapiens, MIA PaCa-2, read-out: EC50 gemcitabine monotherapy (in brackets)) was 9 ng/mL, the “EC75 comb. 1 gemcitabine” value (MiaPaCa-2 cells; MiaPaCa-2, combined with H-1PV MOI 1) was 18 ng/mL and the “EC75 comb. 2 gemcitabine” value (MiaPaCa-2 cells; MiaPaCa-2, combined with H-1PV MOI 10) was 2.0 ng/mL. For the same molecule, the EC75 mono. gemcitabine (MiaPaCa-2 cells; MiaPaCa-2, gemcitabine alone, MTT) was 30 ng/mL, the EC50 (Panc-1 cells; PANC-1, read-out: EC50 mono. gemcitabine) was 400 ng/mL and the EC50 (Panc-1 cells; read-out: EC50 comb. 1 gemcitabine, Panc-1, combined with H-1PV MOI 1) was 200 ng/mL. For the same molecule, the EC50 (Panc-1 cells; read-out: EC50 comb. 2 gemcitabine, Panc-1, combined with H-1PV MOI 10) was 60 ng/mL, the EC50 (T3M-4 cells; Homo sapiens, T3M4, read-out: EC50 gemcitabine monotherapy (in brackets)) was 1.2 ng/mL and the “EC75 comb. 1 gemcitabine” value (T3M-4 cells; T3M-4, combined with H-1PV MOI 1) was 2.4 ng/mL. For the same molecule, the “EC75 comb. 2 gemcitabine” value (T3M-4 cells; T3M-4, combined with H-1PV MOI 10) was 1.5 ng/mL and the EC75 mono. gemcitabine (T3M-4 cells; T3M-4, gemcitabine alone, MTT) was 2.5 ng/mL.

With Cn1nnc2c(C(N)=O)ncn2c1=O [TMZ, Temozolomide] the cells killed (U343MG cells) was “more than 80%”, the “cells lysed / killed” value (U87MG cells) was “about 20%” and the “cells lysed / cytotoxic effect” value (U373MG cells) was “no cytotoxic effect; also recorded: did not result in cell death”.
